One may read the IC50 as the concentration at which inhibition is half-maximal.

The structures appear in SMILES notation.

Our source for the IC50 values is patent US8168648B2, “Camptothecin derivatives and uses thereof” (Taiwan Liposome Co., Ltd., priority 2009, dated 2012).

What all share (assay type): cell-based
For experiment [1], the system named is HCT-116. The experiment is described as follows: In vitro cytotoxicity assay (SRB), HCT-116. As to conditions: HCT-116 (Human colon cancer), 72 hours of incubation.
For experiment [2], the system named is HT-29. In words: In vitro cytotoxicity assay (SRB), HT-29. As to conditions: HT-29 (Human colon cancer), 72 hours of incubation.
Experiment [3] has as its system MCF-7. The experiment is described as follows: In vitro cytotoxicity assay (SRB), MCF-7. As to conditions: MCF7, MCF-7 (Human breast cancer), 72 hours of incubation.
Experiment [4] relates to DMS-114. In words: In vitro cytotoxicity assay (SRB), DMS-114. Conditions: Homo sapiens, DMS-114 (Small cell lung cancer), 72 hours of incubation.
The subject of experiment [5] is PC14PE6/AS2. In words: In vitro cytotoxicity assay (SRB), PC14PE6/AS2. Conditions: PC14PE6/AS2 (Non-small cell lung cancer), 72 hours of incubation.

`CC[C@@]1(OC(=O)[C@@H](C)O)C(=O)OCc2c1cc1n(c2=O)Cc2cc3c(CN(C)C)c(O)ccc3nc2-1` [S,R-topotecan lactate (U1), S,R-topotecan lactate]: the IC50 in experiment [1] worked out at 58 nM; in experiment [2] it was 56 nM; in experiment [3], 194 nM; in experiment [4], 53 nM; in experiment [5], 21 nM.
Regarding `CC[C@@]1(OC(=O)[C@H](C)O)C(=O)OCc2c1cc1n(c2=O)Cc2cc3c(CN(C)C)c(O)ccc3nc2-1` [S,S-topotecan lactate (U2), S,S-topotecan lactate], the IC50 in experiment [1] was found to be 45 nM; in experiment [2] it was 56 nM; in experiment [3], 143 nM; in experiment [4] it was 26 nM; in experiment [5] it was 74 nM.
